Experimental data as given in article PMC10947197, “Acid‐Resistant BODIPY Amino Acids for Peptide‐Based Fluorescence Imaging of GPR54 Receptors in Pancreatic Islets” (Angewandte Chemie (International Ed. in English), 2023).
One block for each compound: values may come before it. Numbered stars: 1 amine (or outer) side, 2 acyl side, 3 side chain; on linkers, the order of the positions; unused ones are H or OH. Square brackets hold non-standard residues; d marks the D form. Peptide text beside a SMILES is read from it. X1 = CC1=CC(C)=[N+]2C1=C(c1cccc(-c3[nH]c4ccccc4c3C[C@H](N[*:1])C(=O)[*:2])c1)c1c(C)cc(C)n1[B-]2(C#N)C#N

Columns and labels:
[1] = biological target: T1, hGPR54 (Homo sapiens, UniProt Q969F8); assay: Calcium mobilization assay in HEK293 cells stably expressing hGPR54; format: cell-based; details: HEK293 cells stably expressing hGPR54, 50,000 cells per well, Fluo4 NW Ca2+ assay kit, GraphPad Prism 9 sigmoidal fit; read-out: EC50 (Ca2+ influx, agonist)
T1 construct: expressed in transfected cells
T1 sequence (Q969F8 whole entry): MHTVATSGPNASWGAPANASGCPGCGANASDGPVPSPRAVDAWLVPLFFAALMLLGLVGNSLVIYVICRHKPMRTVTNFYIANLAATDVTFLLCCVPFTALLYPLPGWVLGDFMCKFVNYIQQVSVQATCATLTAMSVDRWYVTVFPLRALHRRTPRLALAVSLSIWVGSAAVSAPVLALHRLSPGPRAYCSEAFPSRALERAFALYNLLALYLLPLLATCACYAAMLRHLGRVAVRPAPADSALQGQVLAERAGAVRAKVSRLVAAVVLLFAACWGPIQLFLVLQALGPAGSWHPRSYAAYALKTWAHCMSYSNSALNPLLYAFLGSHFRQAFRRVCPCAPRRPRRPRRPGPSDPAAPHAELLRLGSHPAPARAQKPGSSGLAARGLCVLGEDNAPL

[2] = Stability analysis of Trp-BODIPY FlAAs under SPPS conditions; details: r.t.; for Stability (purity by HPLC-MS): 70 μM; for Chemical stability (HPLC-MS): 70 µM;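 on all read-outs here: chemical integrity of the BODIPY-labelled tryptophan amino acids checked after exposure to reagents used in solid-phase peptide synthesis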
Description: Next, we studied the stability of Trp‐BODIPY PLUS in TFA and compared it to that of Trp‐BODIPY (Table 2).
Analysis of t he chemical st abilit y of T rp-BO DI PY and T rp-
BODIPY PLUS under conve nt ion al SPPS condit i ons. Amino aci ds were di lut ed w it h
dif f erent rea gent mixt ur es (70 µ M , f inal v olum e 10 0 uL) a nd st irre d at r. t . f or 1 h
( c ondit i ons A-B and E-H) or 5 m i n ( c o ndit i ons C an d D).
Fmoc-T rp -BO DI PY(X)2-OH
En t ry Conditions X = F X = CN

[3] = Integrity of BODIPY core in crude peptides after cleavage with 95% TFA (HPLC-MS); format: physicochemical; details: crude peptide
Description: To study the application of Trp‐BODIPY PLUS for SPPS of fluorogenic peptides, we first prepared analogues of the model linear sequence KYRAE, which contains a range of non‐polar, positively‐charged and negatively‐charged residues with different PGs (e.g., Boc, tBu, Pbf). We performed the synthesis using standard Fmoc/tBu SPPS conditions (e.g., OxymaPure and 1‐ cyano‐2‐ethoxy‐2‐oxoethylidenaminooxy)dimethylamino‐mor‐pholino‐carbenium hexafluorophosphate (COMU) for couplings, piperidine:DMF (2 : 8) for Fmoc removal) and introduced Trp‐BODIPY PLUS at the N‐terminal end. We performed the cleavage of the labeled peptide (i.e., W(BODIPYplus)KYRAE, peptide 4, Figure 1) with 95 % TFA and compared the purity of the crude to that obtained when using the acid‐labile Trp‐BODIPY (i.e., W(BODIPY)KYRAE, peptide 5, Figure 1). […] Overall, we isolated the model peptide 4 in good yields >20 % and >95 % purity after HPLC purification (see Supporting Information for synthetic and characterization details).

[4] = system: apoptotic cells; details: ref [10e]; cited from earlier work
Description: Next, we assessed whether incorporation of Trp‐BODIPY PLUS enabled retention of the molecular recognition features of bioactive peptides. […] Because Apo‐15 contains one Trp‐BODIPY residue within its sequence, we synthesized the corresponding analogue using Trp‐BODIPY PLUS as the FlAA.

Compound: CC(C)C[C@H](NC(=O)CNC(=O)[C@H](Cc1ccccc1)NC(=O)[C@H](CO)NC(=O)[C@H](CC(N)=O)NC(=O)[C@H](Cc1c[nH]c2ccccc12)NC(=O)[C@H](CC(N)=O)NC(=O)[C@@H](N)Cc1ccc(O)cc1)C(=O)N[C@@H](CCCNC(=N)N)C(=O)N[C@@H](Cc1ccccc1)C(N)=O [KP-10, reference compound]
EC50 [1]: 0.22 nM

Stability (purity by HPLC-MS) ([2]; 2% N2H4 in DMF, 60 min): > 95% | Stability (purity by HPLC-MS) ([2]; 95% TFA, 2.5% DTT, 60 min, DCM): < 5% | Stability (purity by HPLC-MS) ([2]; 95% TFA, 2.5% H2O, 60 min, DCM): < 5% | Stability (purity by HPLC-MS) ([2]; 95% TFA, 2.5% TIS, 60 min, DCM): < 5% | Stability (purity by HPLC-MS) ([2]; 95% TFA, 5 min, DCM): < 5% | Stability (purity by HPLC-MS) ([2]; 95% TFA, 60 min, DCM): < 5% | Stability (purity by HPLC-MS) ([2]; I2 (5 eq) in MeOH, 60 min): 38% | Stability (purity by HPLC-MS) ([2]; Pd(PPh3)4 (0.1 eq), PhSiH3 (10 eq), 60 min, DCM): > 95% | Chemical stability (HPLC-MS) ([2]; Supplementary Table 2 entry A: 1% TFA, 2.5% DTT, 1 h): > 95% | Chemical stability (HPLC-MS) ([2]; Supplementary Table 2 entry B: 5% TFA, 2.5% DTT, 1 h): 34% | Chemical stability (HPLC-MS) ([2]; Supplementary Table 2 entry C: 95% TFA, 2.5% DTT, 5 min): 7% | Chemical stability (HPLC-MS) ([2]; Supplementary Table 2 entry D: 20% piperidine: DMF, 5 min): > 95% | Chemical stability (HPLC-MS) ([2]; Supplementary Table 2 entry E: 5% NaHCO3 (aq), 1 h): > 95% | Chemical stability (HPLC-MS) ([2]; Supplementary Table 2 entry F: 5% Na2CO3 (aq), 1 h): > 95% | Chemical stability (HPLC-MS) ([2]; Supplementary Table 2 entry G: 1% DIPEA: DMF, 1 h): > 95% | Chemical stability (HPLC-MS) ([2]; Supplementary Table 2 entry H: 0.1 M HOBt: TFE, 1 h): > 95% | Stability (purity by HPLC-MS) ([2]; TBAF (3 eq), 60 min, DCM): > 95%
Compound: CC1=CC(C)=[N+]2C1=C(c1cccc(-c3[nH]c4ccccc4c3C[C@H](NC(=O)OCC3c4ccccc4-c4ccccc43)C(=O)O)c1)c1c(C)cc(C)n1[B-]2(F)F [Trp-BODIPY, reference compound]

Compound: CC1=CC(C)=[N+]2C1=C(c1cccc(-c3[nH]c4ccccc4c3C[C@H](NC(=O)[C@H](CC(N)=O)NC(=O)[C@@H](N)Cc3ccc(O)cc3)C(=O)N[C@@H](CC(N)=O)C(=O)N[C@@H](CO)C(=O)N[C@@H](Cc3ccccc3)C(=O)NCC(=O)N[C@@H](CC(C)C)C(=O)N[C@@H](CCCNC(=N)N)C(=O)N[C@@H](Cc3ccccc3)C(N)=O)c1)c1c(C)cc(C)n1[B-]2(C#N)C#N [peptide 7] (H-YN[X1]NSFGLRF-NH2)
EC50 [1]: 2.5 nM

Stability of BODIPY core after cleavage (in words) [3]: completely degraded
Compound: W(BODIPY)KYRAE [peptide 5, model linear peptide KYRAE with acid-labile Trp-BODIPY at the N-terminal end]

Stability of BODIPY core after cleavage (in words) [3]: remained fully stable
Compound: W(BODIPYplus)KYRAE [peptide 4, model linear peptide KYRAE with Trp-BODIPY PLUS at the N-terminal end]

Compound: cyclo(GRKKWFW(BODIPY)) (head to tail) [Apo-15]
Ca2+ dependence of apoptotic cell labelling (in words) [4]: independent on the concentration of Ca^2+ ions | Selective labelling of apoptotic cells (in words) [4]: fluorogenic probe for selective labeling of apoptotic cells
